Test results published in publication PMC7576618 (British Journal of Clinical Pharmacology, 2020).

Tests used:
[1] = monkeys; cited from earlier work
healthy subjects = experiment: SAD study: safety and tolerability; assay type: in vivo, human
[2] = SAD Parts A and C, fasted conditions (total TS‐134)
[3] = SAD Parts A and C, fed conditions (total TS‐134)
[4] = SAD Parts A and C, 5 mg fasted (n = 6)
[5] = SAD Parts A and C, 10 mg fasted (n = 6)
[6] = SAD Parts A and C, 10 mg fed (n = 5)
[7] = SAD Parts A and C, 20 mg fasted (n = 7)
[8] = SAD Parts A and C, 20 mg fed (n = 3)
[9] = SAD Parts A and C, Total TS‐134 fasted (n = 19)
[10] = SAD Parts A and C, Total TS‐134 fed (n = 8)

For `CC(C)[C@@H]1CC[C@@H](C)C[C@H]1OC(=O)O[C@@H](C)OC(=O)[C@H]1[C@@H]2C[C@H](F)[C@@](N)(C(=O)O)[C@@H]21.O=S(=O)(O)c1ccccc1` [TS‐134, (1S,2S,3S,5R,6S)‐2‐amino‐3‐ fluoro‐6‐({(1S)‐1‐[({[(1R,2S,5R)‐5‐methyl‐2‐(propan‐2‐yl)cyclohexyl]oxy}carbonyl)oxy]ethoxy}carbonyl)bicyclo[3.1.0]hexane‐2‐carboxylic acid monobenzenesulfonate], the “conversion of the prodrug into MGS0008 after oral administration” value [1] is given as “rapidly converted into MGS0008”, the incidence of headache (healthy subjects; SAD Part B, fed 10 mg TS‐134) is given as 25.0% and the “incidence of post lumbar puncture syndrome” value (healthy subjects; SAD Part B, fed 10 mg TS‐134) is given as 37.5%. The incidence of somnolence (healthy subjects; SAD Part B, fed 10 mg TS‐134) was 25.0%, the incidence of vomiting (healthy subjects; SAD Part B, fed 10 mg TS‐134) was 25.0% and the Abnormal dreams (healthy subjects; SAD Part B, 10 mg fed (n = 8)) was 0 Number of subjects (%). The Dizziness (healthy subjects; SAD Part B, 10 mg fed (n = 8)) was 0 Number of subjects (%), the Headache (healthy subjects; SAD Part B, 10 mg fed (n = 8)) was 2 (25.0) Number of subjects (%) and the Insomnia (healthy subjects; SAD Part B, 10 mg fed (n = 8)) was 0 Number of subjects (%). For the same compound, the Nausea (healthy subjects; SAD Part B, 10 mg fed (n = 8)) was 0 Number of subjects (%), the “Number of subjects with at least 1 TEAE” value (healthy subjects; SAD Part B, 10 mg fed (n = 8)) was 6 (75.0) Number of subjects (%) and the “Post lumbar puncture syndrome” value (healthy subjects; SAD Part B, 10 mg fed (n = 8)) was 3 (37.5) Number of subjects (%). For the same compound, the Pruritus (healthy subjects; SAD Part B, 10 mg fed (n = 8)) was 0 Number of subjects (%), the Somnolence (healthy subjects; SAD Part B, 10 mg fed (n = 8)) was 2 (25.0) Number of subjects (%) and the “Total number of TEAEs” value (healthy subjects; SAD Part B, 10 mg fed (n = 8)) was 10. The Vomiting (healthy subjects; SAD Part B, 10 mg fed (n = 8)) was 2 (25.0) Number of subjects (%), the incidence of nausea (healthy subjects; [2]) was 21.1% and the incidence of vomiting (healthy subjects; [2]) was 31.6%. For the same compound, the incidence of headache (healthy subjects; [3]) was 25.0%, the incidence of nausea (healthy subjects; [3]) was 25.0% and the Abnormal dreams (healthy subjects; [4]) was 0 Number of subjects (%). For the same compound, the Dizziness (healthy subjects; [4]) was 0 Number of subjects (%), the Headache (healthy subjects; [4]) was 1 (16.7) Number of subjects (%) and the Insomnia (healthy subjects; [4]) was 0 Number of subjects (%). For the same compound, the Nausea (healthy subjects; [4]) was 0 Number of subjects (%), the “Number of subjects with at least 1 TEAE” value (healthy subjects; [4]) was 2 (33.3) Number of subjects (%) and the “Post lumbar puncture syndrome” value (healthy subjects; [4]) was 0 Number of subjects (%). The Pruritus (healthy subjects; [4]) was 0 Number of subjects (%), the Somnolence (healthy subjects; [4]) was 0 Number of subjects (%) and the “Total number of TEAEs” value (healthy subjects; [4]) was 2. The Vomiting (healthy subjects; [4]) was 0 Number of subjects (%), the Abnormal dreams (healthy subjects; [5]) was 0 Number of subjects (%) and the Dizziness (healthy subjects; [5]) was 0 Number of subjects (%). The Headache (healthy subjects; [5]) was 0 Number of subjects (%), the Insomnia (healthy subjects; [5]) was 0 Number of subjects (%) and the Nausea (healthy subjects; [5]) was 1 (16.7) Number of subjects (%). The “Number of subjects with at least 1 TEAE” value (healthy subjects; [5]) was 4 (66.7) Number of subjects (%), the “Post lumbar puncture syndrome” value (healthy subjects; [5]) was 0 Number of subjects (%) and the Pruritus (healthy subjects; [5]) was 0 Number of subjects (%). The Somnolence (healthy subjects; [5]) was 1 (16.7) Number of subjects (%), the “Total number of TEAEs” value (healthy subjects; [5]) was 6 and the Vomiting (healthy subjects; [5]) was 2 (33.3) Number of subjects (%). The Abnormal dreams (healthy subjects; [6]) was 0 Number of subjects (%), the Dizziness (healthy subjects; [6]) was 0 Number of subjects (%) and the Headache (healthy subjects; [6]) was 1 (20.0) Number of subjects (%). For the same compound, the Insomnia (healthy subjects; [6]) was 0 Number of subjects (%), the Nausea (healthy subjects; [6]) was 1 (20.0) Number of subjects (%) and the “Number of subjects with at least 1 TEAE” value (healthy subjects; [6]) was 3 (60.0) Number of subjects (%). The “Post lumbar puncture syndrome” value (healthy subjects; [6]) was 0 Number of subjects (%), the Pruritus (healthy subjects; [6]) was 0 Number of subjects (%) and the Somnolence (healthy subjects; [6]) was 0 Number of subjects (%). The “Total number of TEAEs” value (healthy subjects; [6]) was 4, the Vomiting (healthy subjects; [6]) was 1 (20.0) Number of subjects (%) and the Abnormal dreams (healthy subjects; [7]) was 0 Number of subjects (%). The Dizziness (healthy subjects; [7]) was 0 Number of subjects (%), the Headache (healthy subjects; [7]) was 1 (14.3) Number of subjects (%) and the Insomnia (healthy subjects; [7]) was 0 Number of subjects (%). For the same compound, the Nausea (healthy subjects; [7]) was 3 (42.9) Number of subjects (%), the “Number of subjects with at least 1 TEAE” value (healthy subjects; [7]) was 5 (71.4) Number of subjects (%) and the “Post lumbar puncture syndrome” value (healthy subjects; [7]) was 0 Number of subjects (%). The Pruritus (healthy subjects; [7]) was 0 Number of subjects (%), the Somnolence (healthy subjects; [7]) was 0 Number of subjects (%) and the “Total number of TEAEs” value (healthy subjects; [7]) was 11. The Vomiting (healthy subjects; [7]) was 4 (57.1) Number of subjects (%), the Abnormal dreams (healthy subjects; [8]) was 0 Number of subjects (%) and the Dizziness (healthy subjects; [8]) was 0 Number of subjects (%). For the same compound, the Headache (healthy subjects; [8]) was 1 (33.3) Number of subjects (%), the Insomnia (healthy subjects; [8]) was 0 Number of subjects (%) and the Nausea (healthy subjects; [8]) was 1 (33.3) Number of subjects (%). For the same compound, the “Number of subjects with at least 1 TEAE” value (healthy subjects; [8]) was 1 (33.3) Number of subjects (%), the “Post lumbar puncture syndrome” value (healthy subjects; [8]) was 0 Number of subjects (%) and the Pruritus (healthy subjects; [8]) was 0 Number of subjects (%). The Somnolence (healthy subjects; [8]) was 0 Number of subjects (%), the “Total number of TEAEs” value (healthy subjects; [8]) was 3 and the Vomiting (healthy subjects; [8]) was 0 Number of subjects (%). The Abnormal dreams (healthy subjects; [9]) was 0 Number of subjects (%), the Dizziness (healthy subjects; [9]) was 0 Number of subjects (%) and the Headache (healthy subjects; [9]) was 2 (10.5) Number of subjects (%). The Insomnia (healthy subjects; [9]) was 0 Number of subjects (%), the Nausea (healthy subjects; [9]) was 4 (21.1) Number of subjects (%) and the “Number of subjects with at least 1 TEAE” value (healthy subjects; [9]) was 11(57.9) Number of subjects (%). The “Post lumbar puncture syndrome” value (healthy subjects; [9]) was 0 Number of subjects (%), the Pruritus (healthy subjects; [9]) was 0 Number of subjects (%) and the Somnolence (healthy subjects; [9]) was 1 (5.3) Number of subjects (%). For the same compound, the “Total number of TEAEs” value (healthy subjects; [9]) was 19, the Vomiting (healthy subjects; [9]) was 6 (31.6) Number of subjects (%) and the Abnormal dreams (healthy subjects; [10]) was 0 Number of subjects (%). For the same compound, the Dizziness (healthy subjects; [10]) was 0 Number of subjects (%), the Headache (healthy subjects; [10]) was 2 (25.0) Number of subjects (%) and the Insomnia (healthy subjects; [10]) was 0 Number of subjects (%). For the same compound, the Nausea (healthy subjects; [10]) was 2 (25.0) Number of subjects (%), the “Number of subjects with at least 1 TEAE” value (healthy subjects; [10]) was 4 (50.0) Number of subjects (%) and the “Post lumbar puncture syndrome” value (healthy subjects; [10]) was 0 Number of subjects (%).
